# Measurements published in patent US4847286A, “Cromoglycic acid derivatives, method of production thereof and pharmaceutical composition” (priority 1985, dated 1989).
# Structures can show the parent of a compound that is named as a salt.
# Key:
# [1] = Acute toxicity test, oral route; details: mouse, in vivo, aqueous solution, groups of three ICR-strain male mice
# Procedure: The cromoglycic acid derivatives produced in Examples 1, 4, 7, 11 and 12 were administered, each in the form of an aqueous solution, to groups of three ICR-strain male mice by the oral route.
# [2] = rabbit, in vivo, po, 5 mg/kg, 360 min
# [3] = background statement; cited from earlier work
# in vivo = details: rabbit, po, 5 mg/kg
SMILES,LD50 [1] [mg/kg],0-6 Hr urinary recovery [2] [%],absorption in the digestive tract [3],dose excreted at 6 h (in vivo) [%]
"CCOC(=O)c1cc(=O)c2c(OCC(COc3cccc4oc(C(=O)OCC)cc(=O)c34)OC(=O)CNC(=O)[C@H](C)N)cccc2o1 [Example 7, diethyl N-(L-alanyl)glycylcromoglycate hydrochloride]",> 1000,21.4,,
"CCOCCOC(=O)c1cc(=O)c2c(OCC(COc3cccc4oc(C(=O)OCCOCC)cc(=O)c34)OC(=O)[C@@H](N)CCCCN)cccc2o1 [Example 11, di(2-ethoxyethyl) L-lysylcromoglycate dihydrochloride]",> 1000,25.4,,
"CCOC(=O)c1cc(=O)c2c(OCC(COc3cccc4oc(C(=O)OCC)cc(=O)c34)OC(=O)[C@@H](N)CCCCN)cccc2o1 [Example 1, diethyl L-lysylcromoglycate dihydrochloride]",> 1000,32.6,,
O=C(O)c1cc(=O)c2c(OCC(O)COc3cccc4oc(C(=O)O)cc(=O)c34)cccc2o1 [Cromoglycic acid],,,cannot be absorbed in the digestive tract,3.5
"CCOC(=O)c1cc(=O)c2c(OCC(COc3cccc4oc(C(=O)OCC)cc(=O)c34)OC(=O)[C@H](C)N)cccc2o1 [Example 4, diethyl L-alanylcromoglycate hydrochloride]",> 1000,20.2,,
"CCOCCOC(=O)c1cc(=O)c2c(OCC(COc3cccc4oc(C(=O)OCCOCC)cc(=O)c34)OC(=O)[C@H](C)N)cccc2o1 [Example 12, di(2-ethoxyethyl) L-alanylcromoglycate hydrochloride]",> 1000,21.8,,
